# pIC50: −log10 of the molar value.
# Biological target: T1, recombinant EphB4 (Homo sapiens, UniProt P54760)
# T1 construct: amino acids 563-987; Swiss-Prot Acc; No. P54760; purchased ProQinase GmbH 0178-0000-3
# T1 sequence (P54760 563-987): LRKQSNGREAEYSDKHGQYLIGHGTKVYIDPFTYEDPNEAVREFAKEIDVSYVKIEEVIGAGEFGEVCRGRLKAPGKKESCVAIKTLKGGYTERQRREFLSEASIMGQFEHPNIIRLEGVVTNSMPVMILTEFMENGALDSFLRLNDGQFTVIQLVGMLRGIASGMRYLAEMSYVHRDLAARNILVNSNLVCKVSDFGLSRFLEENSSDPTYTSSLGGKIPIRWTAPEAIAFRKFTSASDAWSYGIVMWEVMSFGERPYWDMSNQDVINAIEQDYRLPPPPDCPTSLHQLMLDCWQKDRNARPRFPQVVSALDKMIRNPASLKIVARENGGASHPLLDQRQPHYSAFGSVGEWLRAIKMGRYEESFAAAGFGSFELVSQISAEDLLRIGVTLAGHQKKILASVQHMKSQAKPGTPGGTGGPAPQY
# Assay: In vitro EphB4 enzyme assay (Alphascreen)
# Assay type: biochemical
# Protocol: This assay detects inhibitors of EphB4-mediated phosphorylation of a polypeptide substrate using Alphascreen™ luminescence detection technology. Briefly, recombinant EphB4 was incubated with a biotinylated-polypeptide substrate (biotin-poly-GAT) in presence of magnesium-ATP. The reaction was stopped by addition of EDTA, together with streptavidin-coated donor beads which bind the biotin-substrate containing any phosphorylated tyrosine residues. Anti-phosphotyrosine antibodies present on acceptor beads bind to phosphorylated substrate, thus bringing the donor & acceptor beads into close proximity. Subsequent excitation of the donor beads at 680 nm generated singlet oxygen species that interact with a chemiluminescer on the acceptor beads, leading to light emission at 520-620 nm. The signal intensity is directly proportional to the level of substrate phosphorylation and thus inhibition is measured by a decrease in signal.
# Assay plates were then incubated at room temperature for 1 hr. […] The plates were sealed under natural lighting conditions, wrapped in aluminium foil and incubated in the dark for a further 20 hrs.
# The resulting assay signal was determined on the Perkin Elmer EnVision plate reader. The minimum value was subtracted from all values, and the signal plotted against compound concentration to generate IC50 data.
row,SMILES,pIC50
1,"CN(c1ccnc(Nc2cc(N3CCOCC3)cc(N3CCOCC3)c2)n1)c1ccc(Cl)cc1Cl [Example 15.1, N′-(2,4-dichlorophenyl)-N-(3,5-dimorpholin-4-ylphenyl)-N′-methyl-pyrimidine-2,4-diamine]",4.47
2,"COc1ccc(C)c(N(C)c2ccnc(Nc3cc(N4CCOCC4)cc(N4CCOCC4=O)c3)n2)c1 [Example 12.7, 4-[3-[[4-[(5-methoxy-2-methyl-phenyl)-methyl-amino]pyrimidin-2-yl]amino]-5-morpholin-4-yl-phenyl]morpholin-3-one]",6.52
3,"CN(c1cccc(Cl)c1)c1ccnc(Nc2cc(N3CCOCC3)cc(N3CCC(O)CC3)c2)n1 [Example 23, 1-[3-({4-[(3-chlorophenyl)(methyl)amino]pyrimidin-2-yl}amino)-5-morpholin-4-ylphenyl]piperidin-4-ol]",8.77
4,"Cc1ccc(CO)cc1N(C)c1ccnc(Nc2cc(OCC(C)C)cc(N3CCOCC3)c2)n1 [Example 17.3, [4-methyl-3-[methyl-[2-[[3-(2-methylpropoxy)-5-morpholin-4-yl-phenyl]amino]pyrimidin-4-yl]amino]phenyl]methanol]",5.72
5,"Cc1ccc(CO)cc1N(C)c1ccnc(Nc2cc(OC(C)C)cc(N3CCOCC3)c2)n1 [Example 17.2, [4-methyl-3-[methyl-[2-[(3-morpholin-4-yl-5-propan-2-yloxy-phenyl)amino]pyrimidin-4-yl]amino]phenyl]methanol]",6.77
6,"CN(c1ccnc(Nc2cc(N3CCOCC3)cc(N3CCOCC3)c2)n1)c1cc(CO)ccc1F [Example 25.3, (3-((2-(3,5-dimorpholinophenylamino)pyrimidin-4-yl)(methyl)amino)-4-fluorophenyl)methanol]",7.94
7,"COC(C)CCOc1cc(Nc2nccc(N(C)c3cc(CO)ccc3C)n2)cc(N2CCOCC2)c1 (stereo not shown) [Example 17.6, [3-[[2-[[3-(3-methoxybutoxy)-5-morpholin-4-yl-phenyl]amino]pyrimidin-4-yl]-methyl-amino]-4-methyl-phenyl]methanol]",5.92
8,"CSc1cccc(N(C)c2ccnc(Nc3cc(N4CCOCC4)cc(N4CCOCC4)c3)n2)c1 [Example 10.7, N-(3,5-dimorpholin-4-ylphenyl)-N′-methyl-N′-(3-methylsulfanylphenyl)pyrimidine-2,4-diamine]",6.20
9,"CN(c1ccnc(Nc2cc(N3CCOCC3)cc(N3CCOCC3)c2)n1)c1ccccc1F [Example 10.16, N-(3,5-dimorpholin-4-ylphenyl)-N′-(2-fluorophenyl)-N′-methyl-pyrimidine-2,4-diamine]",6.63
10,"CN(c1ccnc(Nc2cc(N3CCOCC3)cc(N3CCOCC3)c2)n1)c1cccc(Cl)c1C#N [Example 15.6, 2-chloro-6-[[2-[(3,5-dimorpholin-4-ylphenyl)amino]pyrimidin-4-yl]-methyl-amino]benzonitrile]",6.38
11,"Cc1ccc(CO)cc1N(C)c1ccnc(Nc2cc(OC3CCOC3)cc(N3CCOCC3)c2)n1 (stereo not shown) [Example 17.8, [4-methyl-3-[methyl-[2-[[3-morpholin-4-yl-5-(oxolan-3-yloxy)phenyl]ami-no]pyrimidin-4-yl]amino]phenyl]methanol]",6.32
12,CN(c1cccc(Cl)c1)c1ccnc(Nc2cc(C(=O)N3CCCC3)cc(N3CCOCC3)c2)n1 [Example 19.9],6.12
13,"CCCOc1cc(Nc2nccc(N(C)c3cc(CO)ccc3C)n2)cc(N2CCOCC2)c1 [Example 17.1, [4-methyl-3-[methyl-[2-[(3-morpholin-4-yl-5-propoxy-phenyl)amino]pyrimidin-4-yl]amino]phenyl]methanol]",6.58
14,"Cc1ccc(CO)cc1N(C)c1ccnc(Nc2cc(N3CCOCC3)cc(N3CC[C@H](O)C3)c2)n1 [Example 7.9, (3S)-1-[3-[[4-[[5-(hydroxymethyl)-2-methyl-phenyl]-methyl-amino]pyrimidin-2-yl]amino]-5-morpholin-4-yl-phenyl]pyrrolidin-3-ol]",6.82
15,Cc1ccc(CO)cc1N(C)c1ccnc(Nc2cc(OCC3CC3)cc(N3CCOCC3)c2)n1 [Example 17.4],5.96
16,"COCc1cc(Nc2nccc(N(C)c3ccc(F)c(Cl)c3F)n2)cc(N2CCOCC2)c1 [Example 2.14, N′-(3-chloro-2,4-difluoro-phenyl)-N-[3-(methoxymethyl)-5-morpholin-4-yl-phenyl]-N′-methyl-pyrimidine-2,4-diamine]",6.19

row,SMILES,pIC50
1,"CCN(c1ccnc(Nc2cc(N3CCOCC3)cc(N3CCOCC3)c2)n1)c1cc(OC)ccc1C [Example 22.3, N-(3,5-dimorpholin-4-ylphenyl)-N′-ethyl-N′-(5-methoxy-2-methyl-phenyl)pyrimidine-2,4-diamine]",5.92
2,"CN(c1ccnc(Nc2cc(N3CCOCC3)cc(N3CCOCC3)c2)n1)c1cccc(F)c1F [Example 14, N′-(2,3-difluorophenyl)-N-(3,5-dimorpholin-4-ylphenyl)-N′-methyl-pyrimidine-2,4-diamine]",6.43
3,"COc1ccc(N(C)c2ccnc(Nc3cc(N4CCOCC4)cc(N4CCOCC4)c3)n2)cc1Cl [Example 15.14, N′-(3-chloro-4-methoxy-phenyl)-N-(3,5-dimorpholin-4-ylphenyl)-N′-methyl-pyrimidine-2,4-diamine]",6.30
4,"CN(C)C(=O)c1cc(Nc2nccc(N(C)c3ccc(F)c(Cl)c3F)n2)cc(N2CCOCC2)c1 [Example 2.8, 3-[[4-[(3-chloro-2,4-difluoro-phenyl)-methyl-amino]pyrimidin-2-yl]amino]-N,N-dimethyl-5-morpholin-4-yl-benzamide]",6.47
5,"CN(c1ccc(F)c(Cl)c1)c1ccnc(Nc2cc(N3CCOCC3)cc(N3CCOCC3)c2)n1 [Example 15.22, N′-(4-fluoro-3-chloro-phenyl)-N-(3,5-dimorpholin-4-ylphenyl)-N′-methyl-pyrimidine-2,4-diamine]",6.50
6,"Cc1ccc(CO)cc1N(C)c1ccnc(Nc2cc(O[C@H]3CCOC3)cc(N3CCOCC3)c2)n1 [Example 17.9, [4-methyl-3-[methyl-[2-[[3-morpholin-4-yl-5-[(3S)-oxolan-3-yl]oxyphenyl]ami-no]pyrimidin-4-yl]amino]phenyl]methanol]",6.35
7,"CCNC(=O)c1cc(Nc2nccc(N(C)c3cccc(Cl)c3)n2)cc(N2CCOCC2)c1 [Example 19.25, 3-[[4-[(3-chlorophenyl)-methylamino]pyrimidin-2-yl]amino]-N-ethyl-5-morpholin-4-ylbenzamide]",6.06
8,"CN(c1ccnc(Nc2cc(N3CCOCC3)cc(N3CCOCC3)c2)n1)c1ccc(Cl)cc1F [Example 15.17, N′-(4-chloro-2-fluoro-phenyl)-N-(3,5-dimorpholin-4-ylphenyl)-N′-methyl-pyrimidine-2,4-diamine]",5.94
9,"Cc1ccc(CO)cc1N(C)c1ccnc(Nc2cc(C(=O)NCC(C)C)cc(N3CCOCC3)c2)n1 [Example 18.3, 3-[[4-[[5-(hydroxymethyl)-2-methyl-phenyl]-methyl-amino]pyrimidin-2-yl]amino]-N-(2-methylpropyl)-5-morpholin-4-yl-benzamide]",6.61
10,"COc1ccc(OC)c(N(C)c2ccnc(Nc3cc(N4CCOCC4)cc(N4CCOCC4)c3)n2)c1 [Example 15.4, N′-(2,5-dimethoxyphenyl)-N-(3,5-dimorpholin-4-ylphenyl)-N′-methyl-pyrimidine-2,4-diamine]",6.17
11,"CN(c1cccc(Cl)c1)c1ccnc(Nc2cc(C(=O)NCC3CC3)cc(N3CCOCC3)c2)n1 [Example 19.16, 3-[[4-[(3-chlorophenyl)-methyl-amino]pyrimidin-2-yl]amino]-N-(cyclopropylmethyl)-5-morpholin-4-yl-benzamide]",5.71
12,"Cc1ccc(CO)cc1N(C)c1ccnc(Nc2cc(C(=O)N(C)C)cc(N3CCOCC3)c2)n1 [Example 7.11, 3-[[4-[[5-(hydroxymethyl)-2-methyl-phenyl]-methyl-amino]pyrimidin-2-yl]amino]-N,N-dimethyl-5-morpholin-4-yl-benzamide]",7.22
13,"CN(c1ccnc(Nc2cc(N3CCOCC3)cc(N3CCOCC3)c2)n1)c1cc(CO)ccc1Cl [Example 10.19, [4-chloro-3-[[2-[(3,5-dimorpholin-4-ylphenyl)amino]pyrimidin-4-yl]-methyl-amino]phenyl]methanol]",6.82
14,"COc1ccc(C)c(N(c2ccnc(Nc3cc(N4CCOCC4)cc(N4CCOCC4)c3)n2)C(C)C)c1 [Example 22.2, N-(3,5-dimorpholin-4-ylphenyl)-N′-(5-methoxy-2-methyl-phenyl)-N′-propan-2-yl-pyrimidine-2,4-diamine]",5.73
15,"CN(c1cccc(Cl)c1)c1ccnc(Nc2cc(C(=O)N3CC[C@@H](O)C3)cc(N3CCOCC3)c2)n1 [Example 19.22, [3-[[4-[(3-chlorophenyl)-methyl-amino]pyrimidin-2-yl]amino]-5-morpholin-4-yl-phenyl]-[(3R)-3-hydroxypyrrolidin-1-yl]methanone]",6.92

# Reference: patent US20080242663A1, “NOVEL PYRIMIDINE DERIVATIVES 698” (ASTRAZENECA AB, priority 2007, published 2008)
